Measured values from BindingDB's records for doi:10.1021/jm00042a004 (College of Pharmacy, 1994).

How the values were obtained:
[1] = target: Reverse transcriptase/RNase H (HIV-1); assay: The 50% inhibitory concentration was measured as inhibition of RNA-dependent DNA polymerase activity
[2] = target: Reverse transcriptase/RNase H (HIV-1); assay: The 50% inhibitory concentration was measured as inhibition of DNA-dependent DNA polymerase activity

SMILES	IC50 [1] [µM]	IC50 [2] [µM]
CCCCCCCCCCCCCCCC(=O)Nc1c(O)cc(S(=O)(=O)O)c2ccccc12 [4-Hexadecanoylamino-3-hydroxy-naphthalene-1-sulfonic acid]	3.2	
CCCCCCCCCCCCCCCC(=O)Nc1ccc(S(=O)(=O)O)c2cccc(S(=O)(=O)O)c12 [4-Hexadecanoylamino-naphthalene-1,5-disulfonic acid]	1.6	6.7
O=S(=O)(O)c1ccc2c(OS(=O)(=O)c3cccc4c(S(=O)(=O)Oc5cc(S(=O)(=O)O)cc6cc(S(=O)(=O)O)ccc56)cccc34)cc(S(=O)(=O)O)cc2c1 [4-[5-(3,6-disulfo-1-naphthyloxysulfonyl)-1-naphthylsulfonyloxy]-2,7-naphthalenedisulfonic acid]	4.3	91.3
O=C(Oc1cc(S(=O)(=O)O)cc2cc(S(=O)(=O)O)ccc12)c1ccc(-c2ccc(C(=O)Oc3cc(S(=O)(=O)O)cc4cc(S(=O)(=O)O)ccc34)cc2)cc1 [Biphenyl-4,4'-dicarboxylic acid bis-(3,6-disulfo-naphthalen-1-yl) ester]	3.4	6.9
